The source of these data is patent US20210253511A1, “COMPOUNDS AND USES FOR THE TREATMENT AND PREVENTION OF DISEASES AND CONDITIONS ASSOCIATE WITH OR AGGREVATED BY IMPARED MITOPHAGY” (Yissum Research Development Company of The Hebrew …, priority 2018, published 2021).

“Also recorded” adds a separate entry of the source.

One experiment relates to C. elegans. The experiment can be described thus: Off-food speed measurements. To be noted: 4 mM, aged worms, untreated worms declined significantly. The class given is in vivo. Here is the method:
Bar graphs presenting the speed of 3 and 11 days post L1 wild-type worms that were treated with 4 mM 1,8-Diaminooctane or with vehicle as a control. The measurements of speed were performed in the absence of food (n=6 assays performed over at least 3 days). Asterisks indicate significance for comparisons with control worms (day 11). **p<0.01, two-way ANOVA with Bonferroni post-test. NS, Not significant. Error bars indicate SEM.
For speed-imaging experiments, low-peptone NGM agar plates were used. These plates were prepared as described above apart from the of Bacto peptone concentration that was decreased to 0.13 g/L and the use of 60 mm petri dished (instead of 35 mm dishes). […] In brief, eight synchronized worms (age 3 or 11 post-L1) were put (for 30 min) in a drop of M9 buffer to clean them from external and internal bacteria. During the 30 min the M9 buffer was replaced twice. After 30 min, the worms were placed at the center of a 17 mm diameter copper ring on an unseeded low-peptone plate. Recording was started after 5 min acclimation time. The worms were recorded for 10 min at 0.5 frames/s, using a Q-Imaging MicroPublisher 5.0 RTV Microscope Camera mounted onto an Olympus SZ61 stereo microscope. A custom-written MATLAB software was used to analyze the speed. For each treatment, at least 48 animals in 6 independent assays were measured.

Experiment [1] concerns C. elegans worms in 200 mM paraquat (PQ). The experiment can be described thus: Paraquat survival assay. To be noted: 200 mM PQ. The class given is in vivo. Here is the method:
C. elegans strains were grown at 21° C. on nematode growth media (NGM) agar plates containing diamines or vehicle as a control. The NGM agar plates were prepared as described in L. Livshits, E. Gross, A method for measuring sulfide toxicity in the nematode Caenorhabditis elegans, MethodsX 4 (2017) 250-255. A suspension of 3 g sodium chloride (NaCl), 20 g Bacto agar, and 2.5 g of Bacto peptone in 1 L of double distilled water (DDW) was mixed and autoclaved. Then, the medium was cooled to 55° C. and supplemented with 1 ml of 100 mM CaCl2), 1 ml of 100 mM MgSO4, 25 ml of 1 M potassium phosphate buffer pH 6, and 1 ml of 5 mg/ml cholesterol (the cholesterol was dissolved in ethanol). Diamines or DDW (vehicle) were added to the NGM-agar solution. For RNAi NGM-agar plates, Isopropyl β-D-1-thiogalactopyranoside (IPTG) and ampicillin were added to a final concentration of 1 mM and 100 μg/ml, respectively. The NGM-agar solution was thoroughly vortex mixed and immediately poured into 35 mm petri dish (4 ml per plate). NGM-plates were covered with aluminum foil and dried for 24 h at room temperature (RT). 24 h before the experiment, plates were seeded with 100 μl bacteria (OD600=0.6, OP50 or HT115(DE3)). The seeded plates were covered with aluminum foil and dried for 24 h at RT.
To get synchronized C. elegans larvae, the method described in W. B. Wood, The Nematode Caenorhabditis Elegans, Cold Spring Harbor Laboratory 1988, was performed. In brief, hypochlorite/NaOH solution was made by mixing 1 ml of 5% solution of sodium hypochlorite, 800 μl of 2.5 N NaOH and 2.2 ml DDW to final concentrations of 0.5 N NaOH and 1.25% sodium hypochlorite. M9 buffer was made by dissolving 3 g KH2PO4, 6 g Na2HPO4, 5 g NaCl and 1 ml of MgSO4 from 1M stock in 1 litter of DDW. The solution pH was adjusted to 7 and sterilizes by filtration (with a 0.2 µm filter bottle). Gravid hermaphrodites was washed from the NGM plates into a 15 ml tube with M9 buffer and centrifuged for 2 min at 900×g, RT. Liquid was removed until 2 ml worms' suspension was left and added 2 ml of hypochlorite/NaOH solution. A 5 ml syringe with a 21-gauge needle was used to aspirate the worm suspension back and forth several times. After 3 min it was observed the state of the worms using a dissecting stereoscope. At this stage, approximately 50% of worms should appear broken and many of the embryos should float in the solution. The embryos were immediately sedimented using centrifugation (1690×g for 2 min) and carefully removed the supernatant and add 10 ml of M9 buffer. This washing step was repeated three additional times. The supernatant was removed until 2 ml remains and rotated the tube for 16 h at RT. The hatched L larvae were collected by centrifugation (1690×g for 3 min) and put ˜80 L in each seeded NGM assay plate. Grow the L1 (Day 1) for 3 days until they become young adults (Day 3).

Experiment [2] has as its system pink-1(tm1779) mutants / pink-1 RNAi worms. The experiment can be described thus: Paraquat survival assay in pink-1 deletion mutant or RNAi knockdown worms. It counts as in vivo, C. elegans. Here is the method:
FIGS. 9A-9D show the protective activity of 1,8-Diaminooctane is mitophagy-dependent. (FIG. 9A) is a schematic illustration of the mitophagy pathway in C. elegans. Survival curves presenting the effect of dct-1 and pink-1 deletion mutations (FIG. 9B, FIG. 9C) or RNAi knockdowns (FIG. 9D) on worms' viability in 200 mM PQ at indicated time points. Statistical analysis on PQ survival curves were performed using the log-rank (Mantel-Cox) test with Prism 7 software. The plots represent the average of six independent experiments. The minimum number of worms examined for each experimental condition is 133.
In the first one, the effect of 1,8-Diaminooctane on the survival of dct-1 and pink-1 mutants in PQ was investigated. DCT-1 is an orthologue of the mammalian NIX/BNIP3L and BNIP3 that act as mitophagy receptors, and PINK-1 is a mitochondrial phosphatase and tensin (PTEN)-induced kinase 1 which has a critical function in mitophagy (see K. Palikaras, E. Lionaki, N. Tavernarakis, Coordination of mitophagy and mitochondrial biogenesis during ageing in C. elegans, Nature 521 (7553) (2015) 525-8; and FIG. 3A). It was hypothesized that if mitophagy is essential for the protective effect of 1,8-Diaminooctane, then dct-1 and pink-1 mutants will become sensitive to PQ following treatment. […] The second experiment that was performed was an RNAi experiment. Here, dct-1 and pink-1 were selectively knocked down using RNAi. The RNAi results recapitulated the one of the mutant experiments ([…]). […] Importantly, the RNAi phenotype was less strong compared to the one observed with the deletion mutants. […] The difference between the results could be due to incomplete suppression of dct-1 and pink-1 in the RNAi treated worms. Together, our results verify that 1,8-Diaminooctane protects against oxidative stress by activating mitophagy.

As for `NCCCCCCCCN` [1,8-Diaminooctane], the “speed (off food), day 11 post L1” value was “remained high and was similar to day 3” in the experiment with C. elegans; “no change in the speed” with C. elegans (listed as 1,8-diaminooctane). In addition, the “survival of worms in paraquat” value in experiment [1] (0.0625, 0.25, 1 and 4 mM (all treatments), L1 to young adult (~48 h), vs distilled-water control, log-rank p<0.0001) is “increase the survival of worms significantly; also recorded: significantly increases the resistance to paraquat toxicity in a dose-dependent manner”; in experiment [1] (compound at 4 mM, vs control worms) it was “best protection”; in experiment [1] (tested at 0.0625 mM and 0.25 mM, not split) it was “significantly improved the survival of worms in PQ”. Also, the “survival in PQ of treated worms, RNAi against pink-1” value in experiment [2] (compared to control worms that did not get the treatment, p<0.0001) was “significantly higher than control worms”. Besides, the “resistance to PQ after treatment, pink-1(tm1779) mutants” value in experiment [2] (compared to treated wild-type worms, 200 mM PQ, p<0.0001) is given as “significantly less resistant to PQ”. Moreover, the “protective effect in PQ, RNAi against pink-1” value in experiment [2] (compared to worms treated with mock RNAi (empty vector)) is given as “significantly lesser”.
